Columns and labels:
[1] = Franz cell, human skin; cited from earlier work
[2] = Dialysis equilibrium study of diclofenac release from diclofenac-chondroitin complexes; type: physicochemical; settings: 2 KDa cut-off, 100 mL in 2 L water, 25° C.
[3] = In vivo transcutaneous absorption of diclofenac gels in nude mice; parameters: species or system Charles River nude mice; settings: conclusion from tables 8-10
Protocol: During the study the animals were kept in individual cages, with unrestricted access to food and water.
The animals were euthanised 1, 5 and 10 h after the application, as reported in the trial design in table 7. Immediately after euthanisation the gel application area was washed thoroughly to discriminate between the radioactivity applied and the radioactivity absorbed by the skin. The treated skin areas, liver and blood were recovered from the euthanised animals, and the samples were weighed and frozen immediately after removal. The urine of the animals was recovered from the cages by washing.

[4] = Absorption of ketorolac by human skin using the Franz cell; type: in vitro ADME; settings: compared with absence of the polysaccharide
Protocol: 10 mg of the following gels was applied to the skin surface: a) tromethamine ketorolac salt gel (per gram of gel: 100 mg of polyethylene glycol, 1 mg of benzyl alcohol, 200 mg of tromethamine ketorolac salt and water q.s. for 1 g, dissolved at 50° C. under vigorous stirring); b) tromethamine ketorolac salt-chondroitin gel (0.535 moles of tromethamine ketorolac salt/mole of disaccharide chondroitin units; per gram of gel: 100 mg of polyethylene glycol, 1 mg of benzyl alcohol, 200 mg of chondroitin MW 62 KDa, 100 mg of tromethamine ketorolac salt and water q.s. for 1 g, dissolved at 50° C. under vigorous stirring).
The quantity of ketorolac present in the skin washing solution (unabsorbed part), in the enzymatic tissue digestate (part absorbed by the skin) and in the receptor fluid (part that crossed the skin structure) was determined quantitatively by HPLC. The tests were conducted on a Waters model 746 (USA) HPLC, equipped with a μ-bondapack C18 column (150×4.6 millimetres). A solution of acetonitrile, deionised water and orthophosphoric acid (45:54.5:0.5 in vol.), with a final pH of 3.5, was used as mobile phase, operating with a flow rate of 1 mL/min. The eluate was monitored at 280 nm. Quantitation was performed by measuring the ratios between the peak area of ketorolac and the peak area of the internal standard, consisting of a naproxen solution with a known titre.

[5] = Absorption of diclofenac by human skin using the Franz cell; type: in vitro ADME; settings: compared with absence of the polysaccharide or presence of chondroitin sulphate
Protocol: The skin was frozen to −20° C. immediately after removal, and kept at that temperature until the time of use. Before being placed in the Franz cells, the frozen skin was cleaned of subcutaneous fat, so that only the stratum corneum, the epidermis and the dermis were used, and cut to a size suitable for positioning in the Franz cell, with the stratum corneum facing upwards. Before the study began, the cell was maintained at 30° C. for 10 h with continual stirring of the receptor solution consisting of 10 mL of HBSS (Hank's Buffered Saline Solutions). The surface on which the formulation was deposited measured about 3 cm^2. Before application of the gel in the cells, the receptor solution was replaced, taking care to eliminate all air bubbles between skin and solution.
At the indicated times the receptor phase was recovered and the skin surface was washed thoroughly to remove all the unabsorbed gel. The skin was recovered, homogenised and digested for 10 h under stirring at 30° C. with collagenase (5,200 I/g of skin) in 10 mM of phosphate buffer pH 7.4. At the end of the incubation, 0.4 volumes of ethanol were added and the mixture was centrifuged at 10,000 rpm for 20 min. […] The eluate was monitored at 276 nm.

[6] = Topical absorption and distribution of [3H]chondroitin gels in nude mice; type: in vivo, Charles River nude mice
Protocol: 60 five-month-old Charles River nude mice of both sexes were used as experimental model to evaluate the transcutaneous absorption of chondroitin. The animals were randomised into 12 groups of 5 which, as reported in the study design in table 1, were treated with 50 mg of [^3H]chondroitin gel with different MWs, prepared as described in example 1. During the study the animals were kept in individual cages, with unrestricted access to food and water.
The animals were euthanised 1, 5, 10 and 20 h after the application, as reported in the trial design in table 1. Immediately after euthanisation the gel application area was thoroughly washed until no detectable traces of radioactivity remained in the washing water, in order to discriminate between the radioactivity applied and the radioactivity absorbed by the skin. The treated skin areas, liver and blood were recovered from the euthanised animals, and the samples were weighed and frozen immediately after removal. The urine of the animals was recovered from the cages by washing.
Skin, liver and blood samples (150-200 mg) were solubilised in Soluene […] at ambient temperature. The radioactivity was measured by liquid-phase scintillation on the solubilised samples and the urine.

Molecule: hyaluronic acid
- ability to transport diclofenac and ibuprofen in the skin [1]: able to transport diclofenac and ibuprofen in the skin

Molecule: heparin
- ability to transport diclofenac and ibuprofen in the skin [1]: are not

Molecule: O=C(O)Cc1ccccc1Nc1c(Cl)cccc1Cl [Diclofenac only, 2-(2-[2,6-dichlorophenylamino]phenyl) ethanoic acid]
- % OD275 present in the dialysis medium ([2]; 1 h): 85%
- % OD275 present in the dialysis medium ([2]; 2 h): 94%
- % OD275 present in the dialysis medium ([2]; 4 h): 96%
- % OD275 present in the dialysis medium ([2]; 8 h): 95%
- % OD275 present in the dialysis medium ([2]; 16 h): 96%

Molecule: chondroitin sulphate
- ability to transport diclofenac and ibuprofen in the skin [1]: are not
- acts as transdermal carrier of diclofenac [3]: not

Molecule: chondroitin
- absorption of ketorolac in the presence of chondroitin [4]: increases significantly
- absorption of diclofenac in the presence of chondroitin [5]: increases significantly
- radioactivity in skin, % of dose applied ([6]; skin, 1 h after topical application of 50 mg gel): about 50 % of dose applied
- radioactivity in urine, % of dose applied ([6]; urine, 20 h): about 25 % of dose applied
- acts as transdermal carrier of diclofenac [3]: acts as an efficient transdermal carrier of diclofenac

From patent US20190000803A1, “CHONDROITIN COMPLEXES FOR TRANSCUTANEOUS ABSORPTION” (Altergon S.A., priority 2012, published 2019)
